According to US20230242586A1, “RAS INHIBITORS AND USES THEREOF” (The Regents of the University of California, priority 2020, published 2023):
Values after ≈ are worked out from the molar mass of the structure shown. “Also recorded” adds a separate entry of the source.

Legend:
[1] = Solubility in aqueous buffer; assay type: physicochemical; conditions: for solubility (in words): KD2 Thr10 mutants, compared with parent peptide KD2
SW1990 cells = assay: Ras signaling (p-Akt, p-Erk) in SW1990 cells, Western blot; assay type: cell-based; conditions: SW1990, 10 μM, 24 h
Method: SW1990 cells were obtained from ATCC and maintained in DMEM (Gibco)+10% heat-inactivated FBS (Axenia Biologix) supplemented with penicillin and streptomycin (Gibco). When indicated, cells were treated with drugs at 60-80% confluency at a final DMSO concentration of 1%. At the end of treatment period, cells were placed on ice and washed once with PBS. The cells were scraped with a spatula, pelleted by centrifugation (500×g, 5 min) and lysed in RIPA buffer supplemented with protease and phosphatase inhibitors (cOmplete and phosSTOP, Roche) on ice for 10 min. Lysates were clarified by high-speed centrifugation. Concentrations of lysates were determined with protein BCA assay (Thermo Fisher) and adjusted to 2 mg/mL with additional RIPA buffer. Samples were mixed with 5×SDS Loading Dye and heated at 95° C. for 5 min.
Gel Electrophoresis and Western Blot
Unless otherwise noted, SDS-PAGE was run with Novex 4-12% Bis-Tris gel (Invitrogen) in MES running buffer (Invitrogen) at 200V for 40 min following the manufacturer's instructions. Protein bands were transferred onto 0.45-μm nitrocellulose membranes (Bio-Rad) using a wet-tank transfer apparatus (Bio-Rad Criterion Blotter) in 1×TOWBIN buffer with 10% methanol at 75V for 45 min. […] The membrane was washed three times with TBST (5 min each wash) and imaged on a Li-COR Odyssey fluorescence imager.

[2] = molecular target: T1, K-Ras(G12D)·GppNHp and Raf1-RBD (Homo sapiens, UniProt P01116, G12D); assay: TR-FRET Ras-Raf interaction assay, K-Ras(G12D); assay type: biochemical; conditions: KD2 Thr10 analogs compared to KD2
T1 construct: pET-Duet plasmids encoding BirA biotin-protein ligase and His-Avi-TEV-tagged K-Ras proteins were constructed; made in house; host or cells: E. coli BL21(DE3)
T1 sequence (P01116 1-169 isoform P01116-2 G12D): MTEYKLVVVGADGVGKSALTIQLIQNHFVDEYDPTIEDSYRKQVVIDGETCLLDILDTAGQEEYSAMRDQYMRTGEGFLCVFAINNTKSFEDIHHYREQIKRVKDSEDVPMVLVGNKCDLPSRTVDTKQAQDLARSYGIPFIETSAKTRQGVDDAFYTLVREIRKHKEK

Compound | solubility (in words) [1] | Ras signaling (p-Akt or p-Erk levels) (SW1990 cells) | potency relative to KD2, Ras·Raf interaction [2] | also measured
N[C@@H](Cc1c[nH]cn1)C(=O)O [His, histidine] | limited solubility | – | – | –
CC[C@H](C)[C@@H]1NC(=O)[C@H](Cc2ccccc2)NC(=O)[C@H](CCCCN)NC(=O)[C@H](CCC(=O)O)NC(=O)[C@H]([C@@H](C)O)NC(=O)[C@H](C(C)C)NC(=O)[C@H]([C@@H](C)CC)NC(=O)[C@H]([C@@H](C)CC)NC(=O)[C@@H](Cc2ccc(O)cc2)NC(=O)CSC[C@@H](C(=O)NCC(N)=O)NC(=O)[C@H](Cc2c[nH]cn2)NC(=O)[C@H](Cc2c[nH]cn2)NC(=O)[C@H](C(C)C)NC(=O)[C@H](Cc2c[nH]c3ccccc23)NC1=O [KD1] | – | did not observe any change; also recorded: does not inhibit Ras signaling | – | solubility ([1]; aqueous buffer): ~50 µM (≈ 94.2 µg/mL)
CC(C)C[C@@H]1NC(=O)[C@H](CCC(=O)O)NC(=O)[C@H](CC(C)C)NC(=O)[C@@H]2CCCN2C(=O)[C@H](CCCNC(=N)N)NC(=O)[C@H](Cc2ccc(O)cc2)NC(=O)[C@@H]2CCCN2C(=O)[C@H](Cc2ccc(O)cc2)NC(=O)[C@H](CC(N)=O)NC(=O)[C@@H](Cc2ccc(O)cc2)NC(=O)CSC[C@@H](C(=O)NCC(N)=O)NC(=O)[C@H](Cc2ccc(O)cc2)NC(=O)[C@H](Cc2c[nH]c3ccccc23)NC(=O)CNC1=O [KD17] | – | did not observe any change; also recorded: does not inhibit Ras signaling | – | –
NCCCC[C@H](N)C(=O)O [Lys, lysine] | significantly lower | – | about 3 fold | –
CC1CCN(C[C@@H]2NC(=O)[C@H](CCCNC(=N)N)NC(=O)[C@H](Cc3ccccc3)NC(=O)[C@H](CC(N)=O)NC(=O)[C@H](CCCNC(=N)N)NC(=O)[C@H](Cc3ccccc3)NC(=O)[C@H](CC(N)=O)NC(=O)[C@H](C(C)C)NC(=O)[C@H](Cc3ccccc3)NC(=O)[C@@H](Cc3ccc(O)cc3)NC(=O)CSC[C@@H](C(=O)NCC(N)=O)NC(=O)[C@H](CCCNC(=N)N)NC(=O)[C@H](Cc3ccccc3)NC2=O)CC1 [Aza-X] | – | – | > 10 fold | –
NC[C@H](N)C(=O)O [Dap, 2,3-diaminoproprionic acid] | limited solubility | – | – | –
